We go through 45 compounds from the supplement of paper PMC8372320.

This series can be described thus: photocatalytic hydrogen evolution rate (per 5 mg catalyst); higher = more photocatalytic H2 evolution; extreme values may be limits of the assay. To be noted: catalyst mass (mg): 5; Pt cocatalyst (wt%): 3; sacrificial medium: triethylamine/methanol/water 1:1:1.
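Further: aromatic molecules in triethylamine/methanol/water with Pt photoreduced in situ, irradiated 3 h under a 1 sun AM 1.5G solar simulator (350–1000 nm), H2 quantified by headspace gas chromatography; listed molecule itself used as the photocatalyst at 5 mg per vial.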

In the case of `Cc1cc(-c2cc(C)c(N)c(C)c2)cc(C)c1N`, the “photocatalytic hydrogen evolution rate” value is 0 µmol/h. With `O=Cc1ccc(-c2ccncc2)cc1`, the “photocatalytic hydrogen evolution rate” value was found to be 3.29 µmol/h. As to `O=Cc1ccc(-c2ccccn2)cc1`, the “photocatalytic hydrogen evolution rate” value came out at 5.1 µmol/h.

Consider `Nc1ccc(N)c(S(=O)(=O)O)c1`, for which the “photocatalytic hydrogen evolution rate” value was 0 µmol/h. For the compound `Brc1cc(Br)cc(-c2cc(Br)cc(Br)c2)c1`, the “photocatalytic hydrogen evolution rate” value stood at 0.0514 µmol/h.

Take `N#Cc1cc(F)c(F)c(F)c1F`: the “photocatalytic hydrogen evolution rate” value is 0 µmol/h. Regarding `Oc1c(F)c(F)c(O)c(F)c1F`, the “photocatalytic hydrogen evolution rate” value amounted to 0 µmol/h. On to `C#Cc1cc(C#C)cc(C#C)c1`, for which the “photocatalytic hydrogen evolution rate” value came out at 0 µmol/h. Take `O=C1Cc2cc(Br)cc(Br)c2N1`: the “photocatalytic hydrogen evolution rate” value was found to be 0 µmol/h. As to `Nc1ccncc1`, the “photocatalytic hydrogen evolution rate” value worked out at 0 µmol/h.

Consider `N#Cc1c(O)[nH]c(=O)c(C#N)c1-c1ccccc1`, for which the “photocatalytic hydrogen evolution rate” value came to 0 µmol/h. On to `CC(=O)c1ccc(C#N)cc1`, for which the “photocatalytic hydrogen evolution rate” value was 5.7 µmol/h. As for `c1ccc(Nc2cc(Nc3ccccc3)cc(Nc3ccccc3)c2)cc1`, the “photocatalytic hydrogen evolution rate” value was found to be 0 µmol/h.

Consider `NNC(=O)c1cc(Br)c(O)c(Br)c1`, for which the “photocatalytic hydrogen evolution rate” value amounted to 0 µmol/h.

As for `N#Cc1cccc(F)c1F`, the “photocatalytic hydrogen evolution rate” value turned out to be 0 µmol/h. Then `N#CC(C#N)=c1c(F)c(F)c(=C(C#N)C#N)c(F)c1F`, with 0 µmol/h.

Regarding `O=Cc1c(F)c(F)c(C=O)c(F)c1F`, the “photocatalytic hydrogen evolution rate” value was 0.177 µmol/h. For the compound `c1ccc(-c2ccccc2-c2ccccc2)cc1`, the “photocatalytic hydrogen evolution rate” value came to 0 µmol/h. The value for `c1ccc(-c2ccc(-c3ccc(-c4ccccc4)cc3)cc2)cc1` was 0 µmol/h; that for `N#Cc1cc(F)c(F)cc1F` was 0.0582 µmol/h. For the compound `Brc1cnc(Br)nc1`, the “photocatalytic hydrogen evolution rate” value was 0 µmol/h.

`N#Cc1cc2ccccc2cc1C#N`: the “photocatalytic hydrogen evolution rate” value was 0.401 µmol/h. `O=C(O)c1ccc(-c2cc(-c3ccc(C(=O)O)cc3)cc(-c3ccc(C(=O)O)cc3)c2)cc1`: the “photocatalytic hydrogen evolution rate” value turned out to be 0.00212 µmol/h.

Take `O=Cc1cc(F)cc(Br)c1`: the “photocatalytic hydrogen evolution rate” value was found to be 0.0795 µmol/h.

Consider `COc1cc(Br)cc(OC)c1`, for which the “photocatalytic hydrogen evolution rate” value came to 0.0348 µmol/h. For `O=Cc1cc(O)c(O)c(O)c1`, the “photocatalytic hydrogen evolution rate” value was found to be 0 µmol/h.

`Cc1cc(C#N)c(C)cc1C#N`: the “photocatalytic hydrogen evolution rate” value was found to be 0 µmol/h.

`OB(O)c1ccc(-c2ccc(B(O)O)cc2)cc1`: the “photocatalytic hydrogen evolution rate” value was 0 µmol/h. As for `O=Cc1ccc(Oc2ccc(C=O)cc2)cc1`, the “photocatalytic hydrogen evolution rate” value was 2.42 µmol/h. With `N#Cc1cccc(Br)n1`, the “photocatalytic hydrogen evolution rate” value was found to be 0 µmol/h. `O=c1[nH]cc[nH]1`: the “photocatalytic hydrogen evolution rate” value turned out to be 0 µmol/h.

With `c1cc(-c2ccncc2)ccn1`, the “photocatalytic hydrogen evolution rate” value is 0 µmol/h.

Turning to `Brc1ccnc(-c2cc(Br)ccn2)c1`, the “photocatalytic hydrogen evolution rate” value worked out at 0 µmol/h.

As to `CC(C)(O)c1ccc(C(C)(C)O)cc1`, the “photocatalytic hydrogen evolution rate” value turned out to be 0.00118 µmol/h. `O=Cc1cc(O)cc(F)c1`: the “photocatalytic hydrogen evolution rate” value turned out to be 0 µmol/h.

In the case of `Cc1ccc(N(c2ccc(C)cc2)c2ccc(C=O)cc2)cc1`, the “photocatalytic hydrogen evolution rate” value came to 0.0671 µmol/h. `N#Cc1ccc(-c2ccc(C#N)cc2)cc1`: the “photocatalytic hydrogen evolution rate” value was 0 µmol/h. Regarding `N#Cc1cc(N)cc(Cl)c1`, the “photocatalytic hydrogen evolution rate” value is 0.000715 µmol/h. As for `N#Cc1cc(F)cc(F)c1`, the “photocatalytic hydrogen evolution rate” value is 0 µmol/h. With `CC(=O)c1ccc(-c2ccc(C(C)=O)cc2)cc1`, the “photocatalytic hydrogen evolution rate” value was determined as 3.67 µmol/h. For the compound `O=C1C=C(O)C(=O)C=C1O`, the “photocatalytic hydrogen evolution rate” value worked out at 0 µmol/h.

As to `Cc1c(C)c(C)c(C=O)c(C)c1C`, the “photocatalytic hydrogen evolution rate” value came to 0.844 µmol/h. Then `Brc1ccc(N(c2ccccc2)c2ccc(Br)cc2)cc1`, with 0.729 µmol/h; and `O=C1c2ccccc2Cc2ccccc21`, with 0 µmol/h. Regarding `Nc1ccc(-c2nnc(-c3ccc(N)cc3)nn2)cc1`, the “photocatalytic hydrogen evolution rate” value was determined as 0 µmol/h.
